# In the supplement of paper PMC10307832:
# Tests used:
# Experiment in all cases: relative viability (nuclei count vs DMSO), 5 days (fraction); higher = more cells survive
# [1] = compound: C[C@H]([C@@H](C(=O)N)NC(=O)[C@@H]1CSSC[C@@H](C(=O)N[C@H](C(=O)N[C@@H](C(=O)N[C@H](C(=O)N1)CCCCN)CC2=CNC3=CC=CC=C32)CC4=CC=C(C=C4)O)NC(=O)[C@@H](CC5=CC=CC=C5)N)O [CAP-232]
# Procedure, shortened: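 Five library-drug doses spaced by √10 were pinned onto vehicle-anchored 1536-well plates of lung cancer cell lines that had been kept overnight at 37 °C. Cells went 5 days without medium change, then were fixed, permeabilised and Hoechst-stained together, imaged at 4× and counted by MetaXpress. Viability is the ratio of treated-well to vehicle-well nuclei, taken as a median over plates. Plates required control CV below 25% and at least one doubling.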
# [2] = compound: C[C@H]([C@@H](C(=O)N)NC(=O)[C@@H]1CSSC[C@@H](C(=O)N[C@H](C(=O)N[C@@H](C(=O)N[C@H](C(=O)N1)CCCCN)CC2=CNC3=CC=CC=C32)CC4=CC=C(C=C4)O)NC(=O)[C@@H](CC5=CC=CC=C5)N)O [CAP-232] + Cc1nc(Nc2ncc(C(=O)Nc3c(C)cccc3Cl)s2)cc(N2CCN(CCO)CC2)n1 [Dasatinib] (partner 0.075 µM)
# Procedure, shortened: (§1)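 Lung cancer cell lines were pin-tool dosed in 1536-well plates on the day after seeding, with either a lone drug or a fixed anchor-drug dose plus five library-drug doses (not always all listed) in √10 steps. Nuclei were counted on 4× images after 5 days. Relative viability is the ratio of treated-well to vehicle-well nuclei counts, with each value a median of duplicate plates.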
# [3] = compound: C[C@H]([C@@H](C(=O)N)NC(=O)[C@@H]1CSSC[C@@H](C(=O)N[C@H](C(=O)N[C@@H](C(=O)N[C@H](C(=O)N1)CCCCN)CC2=CNC3=CC=CC=C32)CC4=CC=C(C=C4)O)NC(=O)[C@@H](CC5=CC=CC=C5)N)O [CAP-232] + Cc1nc(NC(=O)N2CCC[C@H]2C(N)=O)sc1-c1ccnc(C(C)(C)C(F)(F)F)c1 [Alpelisib] (partner 2 µM)
# Procedure, shortened: as §1
# [4] = compound: C[C@H]([C@@H](C(=O)N)NC(=O)[C@@H]1CSSC[C@@H](C(=O)N[C@H](C(=O)N[C@@H](C(=O)N[C@H](C(=O)N1)CCCCN)CC2=CNC3=CC=CC=C32)CC4=CC=C(C=C4)O)NC(=O)[C@@H](CC5=CC=CC=C5)N)O [CAP-232] + O=C(c1cc(Cc2n[nH]c(=O)c3ccccc23)ccc1F)N1CCN(C(=O)C2CC2)CC1 [Olaparib] (partner 8 µM)
# Procedure, shortened: as §1
# [5] = compound: C[C@H]([C@@H](C(=O)N)NC(=O)[C@@H]1CSSC[C@@H](C(=O)N[C@H](C(=O)N[C@@H](C(=O)N[C@H](C(=O)N1)CCCCN)CC2=CNC3=CC=CC=C32)CC4=CC=C(C=C4)O)NC(=O)[C@@H](CC5=CC=CC=C5)N)O [CAP-232] + C[C@@H](Oc1cc(-c2cnn(C3CCNCC3)c2)cnc1N)c1c(Cl)ccc(F)c1Cl [Crizotinib] (partner 1 µM)
# Procedure, shortened: as §1
Cell Line,relative viability ([1]; 0.4 µM),relative viability ([1]; 1.265 µM),relative viability ([1]; 4 µM),relative viability ([1]; 12.65 µM),relative viability ([2]; first compound 0.4 µM),relative viability ([2]; first compound 1.265 µM),relative viability ([2]; first compound 4 µM),relative viability ([2]; first compound 12.65 µM),relative viability ([3]; first compound 0.4 µM),relative viability ([3]; first compound 1.265 µM),relative viability ([3]; first compound 4 µM),relative viability ([3]; first compound 12.65 µM),relative viability ([4]; first compound 0.4 µM),relative viability ([4]; first compound 1.265 µM),relative viability ([4]; first compound 4 µM),relative viability ([4]; first compound 12.65 µM),relative viability ([5]; first compound 0.4 µM),relative viability ([5]; first compound 1.265 µM),relative viability ([5]; first compound 4 µM),relative viability ([5]; first compound 12.65 µM)
LCLC-103H,1.13,0.984,1.08,0.967,0.528,0.455,0.499,0.403,0.948,0.921,0.972,0.898,0.882,0.752,0.733,0.751,1.1,0.984,0.98,1.06
LK-2,1.08,0.957,1.1,0.976,0.295,0.133,0.202,0.201,1.02,1.15,1.2,1.75,0.762,0.834,0.702,0.811,0.216,0.251,0.181,0.199
LOU-NH91,1.01,0.908,0.934,0.686,0.593,0.548,0.618,0.437,0.738,0.771,0.699,0.58,0.945,0.873,0.907,0.574,0.748,0.76,0.921,0.705
LU99A,0.969,0.919,0.986,0.984,0.769,0.493,0.675,0.492,0.515,0.517,0.471,0.497,0.233,0.232,0.332,0.306,0.486,0.652,0.513,0.561
LXF-289,1.04,1.02,1.06,0.993,0.224,0.194,0.238,0.21,1.13,1.08,1.1,1.02,1.09,1.07,1.12,1.08,0.843,0.803,0.784,0.841
NCI-H23,1.09,0.853,0.949,0.931,0.714,0.609,0.891,0.844,0.848,0.743,0.714,0.668,0.34,0.301,0.306,0.27,0.532,0.444,0.462,0.362
NCI-H322M,1.13,0.86,0.896,1.16,0.275,0.237,0.256,0.34,0.778,0.753,0.709,0.755,0.939,0.746,0.745,0.697,1.01,0.903,0.841,0.778
NCI-H358,0.979,0.918,0.927,0.81,0.183,0.151,0.124,0.179,0.508,0.821,0.868,0.789,0.454,0.677,0.783,0.465,0.435,0.426,0.473,0.511
NCI-H441,1.07,0.969,1.07,0.921,0.653,0.857,0.7,0.543,0.757,0.912,0.788,0.843,0.482,0.551,0.595,0.429,0.711,0.636,0.639,0.734
NCI-H460,1.04,1.01,1.09,0.777,0.704,0.478,0.581,0.419,0.512,0.541,0.595,0.211,0.515,0.384,0.526,0.332,0.924,1.1,1.05,0.534
NCI-H520,1.09,1.01,1.07,0.928,0.189,0.193,0.251,0.201,0.945,0.93,1.08,0.568,0.349,0.304,0.321,0.303,0.822,0.66,0.888,0.56
NCI-H596,1.12,0.934,0.912,0.976,0.502,0.615,0.536,0.615,0.558,0.512,0.497,0.507,0.713,0.612,0.583,0.641,1.15,0.988,0.89,1.05
NCI-H647,1.11,0.808,1.17,0.768,0.259,0.155,0.179,0.125,1.18,1.16,1.37,0.761,0.699,0.7,0.635,0.373,1.28,1.01,1.05,0.871
NCI-H650,1.03,0.979,1.02,0.91,0.509,0.426,0.521,0.417,0.997,1.3,0.997,0.825,0.434,0.427,0.341,0.361,0.7,0.767,0.795,0.494
